# Where two headings read alike, the source gives them in different places.
# What was measured:
# [1] = cited from earlier work
# [2] = Optical characteristics (absorption, fluorescence, excitation spectra) in 100 mM sodium phosphate buffer; assay type: physicochemical; details: for absorption maximum / absorption wavelength, acidic pH: acidic solution; for absorption maximum / absorption wavelength, basic pH: basic solution
# Experimental: The spectral characteristics of compound 1 of the present invention (2,6-diMe BnPiperaIndoSiR) were evaluated. The absorption spectrum, fluorescence spectrum, and excitation spectrum were measured using a Shimadzu UV-1650PC absorption spectrophotometer and a Hitachi F-4500 fluorometer.
# (§1) FIG. 2a represents the assumed chemical equilibrium equation of 2,6-diMe BnPiperaIndoSiR. FIGS. 2b, 2c, and 2d respectively represent the absorption, fluorescence, and excitation spectra of 2,6-diMe BnPiperaIndoSiR in 100 mM sodium phosphate buffer (containing 1% DMSO) of different pH.
# The spectral characteristics of compound 2 of the present invention (SiRpH3) were evaluated. The absorption spectrum fluorescence spectrum, and excitation spectrum were measured using a Shimadzu UV-1650PC absorption spectrophotometer and a Hitachi F-4500 fluorometer.
# (§2) FIGS. 3a, 3b, and 3c represent the absorption, fluorescence, and excitation spectra of SiRpH3 in 100 mM sodium phosphate buffer (containing 1% DMSO) of different pH.
# The spectral characteristics of compound 3 of the present invention (SiRpH4) were evaluated. The absorption spectrum fluorescence spectrum, and excitation spectrum were measured using a Shimadzu UV-1650PC absorption spectrophotometer and a Hitachi F-4500 fluorometer.
# (§3) FIGS. 4a and 4b represent the absorption and excitation spectra of SiRpH4 in 100 mM sodium phosphate buffer (containing 1% DMSO) of different pH.
# The spectral characteristics of compound 4 of the present invention (SiRpH5) were evaluated. The absorption spectrum fluorescence spectrum, and excitation spectrum were measured using a Shimadzu UV-1650PC absorption spectrophotometer and a Hitachi F-4500 fluorometer.
# (§4) FIG. 5a represents the assumed chemical equilibrium equation of SiRpH5. FIGS. 5b and 5c represent the absorption and excitation spectra of SiRpH5 in 100 mM sodium phosphate buffer (containing 1%) DMSO) of different pH.
# [3] = pKa of the protonation reaction from plot of absorbance or fluorescence intensity ratio vs. pH; assay type: physicochemical; details: for pKa of the protonation reaction: 100 mM sodium phosphate buffer, 1% DMSO
# Experimental: as §1, §2, §3, §4
# [4] = pH 3.0, 100 mM sodium phosphate buffer
# [5] = pH 10.0, 100 mM sodium phosphate buffer
# [6] = Table 2, pH 3.0, 100 mM sodium phosphate buffer
# [7] = Table 2, pH 7.4, 100 mM sodium phosphate buffer
# [8] = Table 2, pH 10.0, 100 mM sodium phosphate buffer
# [9] = Table 3, pH 3.0, 100 mM sodium phosphate buffer
# [10] = Table 3, pH 10.0, 100 mM sodium phosphate buffer
molecule,measurement,setting,value
"2′,7′-bis-(2-carboxyethyl)-5- (and -6-)carboxyfluoresceins [BCECF]",pKa,[1],7.0
"Cc1cccc(C)c1C1=c2cc3c(cc2[Si](C)(C)c2cc(N4CCN(Cc5ccccc5)CC4)ccc21)=[N+](C)CC3.O=C(O)C(F)(F)F [2,6-diMe BnPiperaIndoSiR]",Absmax,[2]; [4],588 nm
same,E,[2]; [4],"26,000 M^−1 cm^−1"
same,Emmax,[2]; [4],676 nm
same,Φfl,[2]; [4],0.19
same,Absmax,[2]; [5],663 nm
same,E,[2]; [5],"33,000 M^−1 cm^−1"
same,Emmax,[2]; [5],689 nm
same,Φfl,[2]; [5],0.12
same,decrease of pKa in comparison to 2-Me MePiperaIndoSiR,[3]; by benzylation of the piperazine aliphatic amino group,0.9
same,pKa of the protonation reaction,[3]; from changes in absorbance at 663 nm when the pH was varied,6.4
Cc1cccc(C)c1C1=c2cc3c(cc2[Si](C)(C)c2cc(N4CCN(Cc5cccc(F)c5)CC4)ccc21)=[N+](C)CC3.O=C(O)C(F)(F)F [SiRpH3],lengthening of the absorption wavelength as the pH moved from acidic to basic,[2],approximately 80 nm
same,Absmax,[2]; [6],585 nm
same,E,[2]; [6],"25,000 M^−1cm^−1"
same,Emmax,[2]; [6],676 nm
same,Φfl,[2]; [6],0.20
same,Absmax,[2]; [7],662 nm
same,E,[2]; [7],"30,000 M^−1cm^−1"
same,Emmax,[2]; [7],688 nm
same,Φfl,[2]; [7],0.12
same,Absmax,[2]; [8],663 nm
same,E,[2]; [8],"31,000 M^−1cm^−1"
same,Emmax,[2]; [8],689 nm
same,Φfl,[2]; [8],0.11
same,"absorption maximum / absorption wavelength, acidic pH",[2],approximately 580 nm
same,"absorption maximum / absorption wavelength, basic pH",[2],approximately 660 nm
Cc1cccc(C)c1C1=c2cc3c(cc2[Si](C)(C)c2cc(N4CCN(Cc5ccccc5S(=O)(=O)O)CC4)ccc21)=[N+](C)CC3 [SiRpH4],shift of the pKa of the ratio value change,[3],shifted to the basic side in comparison to SiRpH3
Cc1cc(C(=O)O)cc(C)c1C1=c2cc3c(cc2[Si](C)(C)c2cc(N4CCN(Cc5ccc(S(=O)(=O)O)cc5S(=O)(=O)O)CC4)ccc21)=[N+](C)CC3.O=C([O-])C(F)(F)F [SiRpH5],Λem,[2]; [9],679 nm
same,Λex,[2]; [9],588 nm
same,Φfl,[2]; [9],0.21
same,ε,[2]; [9],"23,000 M^−1cm^−1"
same,Λem,[2]; [10],690 nm
same,Λex,[2]; [10],668 nm
same,Φfl,[2]; [10],0.08
same,ε,[2]; [10],"33,000 M^−1cm^−1"
same,"absorption maximum / absorption wavelength, acidic pH",[2],approximately 590 nm
same,"absorption maximum / absorption wavelength, basic pH",[2],approximately 670 nm
same,pKa of the protonation reaction,"[3]; from plot of fluorescence intensity ratio (700 nm, excitation 580 nm / 663 nm) vs. pH",6.1
same,shift of the pKa of the ratio value change,[3]; in comparison to the named probe,shifted to the acidic side in comparison to SiRpH4
